This test addresses Sushi domains (SD1/2) protein. Briefly: Fluorescence polarization (FP) competition assay with AJAP-1probe, calculated Ki. The settings on record: read-out: Ki (nM) mean ± SEM. The class given is binding. Put shortly:
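Competition against 25 nM TAMRA-labelled peptide probe binding SD1/2, in PBS pH 7.4 with 1% BSA at rt, read at 530/580 nm. IC50 from sigmoidal dose-response fits, at least triplicate; Ki calculated from IC50 using probe Kd from saturation binding.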

Setting [1] is: Table 11, deep mutational scanning validation variants of AJAP-1WT.
[2] abbreviates: Table 8, Ala-, D-amino acids and N-methylation scans of AJAP-1WT.
Setting [3] is: Table 13, peptides for affinity maturation.
[4] abbreviates: Table 6, elongation and truncation scan of PIANP binding epitope.

The structures appear in SMILES notation. Where two headings read alike, the source gives them in different places. Non-standard residues stand in square brackets, D forms with d. Residues, ends and D or L forms follow the SMILES beside them. NMeT = CN[C@H](C(=O)O)[C@@H](C)O; NMeE = CN[C@@H](CCC(=O)O)C(=O)O; NMeD = CN[C@@H](CC(=O)O)C(=O)O; Sar = CNCC(=O)O

With `CC[C@H](C)[C@H](NC(=O)[C@H](Cc1ccccc1)NC(=O)[C@H](CCC(=O)O)NC(=O)[C@@H](NC(=O)[C@H](CCC(=O)O)NC(C)=O)[C@@H](C)O)C(=O)N[C@@H](C)C(=O)N[C@@H](Cc1c[nH]c2ccccc12)C(=O)NCC(=O)N1CCC[C@H]1C(=O)N[C@H](C(=O)NCC(=O)N[C@@H](CC(=O)O)C(=O)N[C@@H](CCC(=O)O)C(=O)N[C@H](C(N)=O)C(C)C)[C@@H](C)O` (Ac-ETEFIAWGPTGDEV-NH2), under setting [1], the Ki was 40 ± 2 nM.
For the molecule `CC[C@H](C)[C@H](NC(=O)[C@H](Cc1ccccc1)NC(=O)[C@H](CCC(=O)O)NC(=O)[C@@H](NC(=O)[C@H](CCC(=O)O)NC(C)=O)[C@@H](C)O)C(=O)N[C@@H](C)C(=O)N[C@@H](Cc1c[nH]c2ccccc12)C(=O)NCC(=O)N1CCC[C@H]1C(=O)N[C@H](C(=O)NCC(=O)N[C@@H](CC(=O)O)C(=O)N[C@@H](CCC(=O)O)C(=O)N[C@@H](Cc1c[nH]c2ccccc12)C(N)=O)[C@@H](C)O` (Ac-ETEFIAWGPTGDEW-NH2), under setting [1], the Ki was 54 ± 2 nM.
Consider `CC[C@H](C)[C@H](NC(=O)[C@H](Cc1ccccc1)NC(=O)[C@H](CCC(=O)O)NC(=O)[C@@H](NC(=O)[C@H](CCC(=O)O)NC(C)=O)[C@@H](C)O)C(=O)N[C@@H](C)C(=O)N[C@@H](Cc1c[nH]c2ccccc12)C(=O)NCC(=O)N1CCC[C@H]1C(=O)N[C@H](C(=O)NCC(=O)N[C@@H](CC(=O)O)C(=O)N[C@@H](CCC(=O)O)C(=O)N(C)[C@@H](CC(=O)O)C(N)=O)[C@@H](C)O` (Ac-ETEFIAWGPTGDE[NMeD]-NH2), for which the Ki under setting [2] was 29 ± 1 nM.
Turning to `CC[C@H](C)[C@H](NC(=O)[C@H](Cc1ccccc1)NC(=O)[C@H](CCC(=O)O)NC(=O)[C@@H](NC(=O)[C@H](CCC(=O)O)NC(C)=O)[C@@H](C)O)C(=O)N[C@@H](C)C(=O)N[C@@H](Cc1c[nH]c2ccccc12)C(=O)NCC(=O)N1CCC[C@H]1C(=O)N[C@H](C(=O)NCC(=O)N[C@@H](CC(=O)O)C(=O)N[C@@H](Cc1ccccc1)C(=O)N[C@@H](CC(=O)O)C(N)=O)[C@@H](C)O` (Ac-ETEFIAWGPTGDFD-NH2), under setting [1], the Ki was 41 ± 2 nM.
`CC[C@H](C)[C@H](NC(=O)[C@H](Cc1ccccc1)NC(=O)[C@H](CCC(=O)O)NC(=O)[C@@H](NC(=O)[C@H](CCC(=O)O)NC(C)=O)[C@@H](C)O)C(=O)N[C@@H](C)C(=O)N[C@@H](Cc1c[nH]c2ccccc12)C(=O)NCC(=O)N1CCC[C@H]1C(=O)N[C@H](C(=O)NCC(=O)N[C@@H](CC(=O)O)C(=O)N1CCC[C@H]1C(=O)N[C@@H](CC(=O)O)C(N)=O)[C@@H](C)O` (Ac-ETEFIAWGPTGDPD-NH2): the Ki under setting [1] is 34 ± 2 nM.
With `CC[C@H](C)[C@H](NC(=O)[C@H](Cc1ccccc1)NC(=O)[C@H](CCC(=O)O)NC(=O)[C@@H](NC(=O)[C@H](CCC(=O)O)NC(C)=O)[C@@H](C)O)C(=O)N[C@@H](C)C(=O)N[C@@H](Cc1c[nH]c2ccccc12)C(=O)NCC(=O)N1CCC[C@H]1C(=O)N[C@H](C(=O)NCC(=O)N[C@@H](CC(=O)O)C(=O)N[C@@H](CCCNC(=N)N)C(=O)N[C@@H](CC(=O)O)C(N)=O)[C@@H](C)O` (Ac-ETEFIAWGPTGDRD-NH2), the Ki under setting [1] is 54 ± 2 nM.
Still for that read-out and setting: next, `CC[C@H](C)[C@H](NC(=O)[C@H](Cc1ccccc1)NC(=O)[C@H](CCC(=O)O)NC(=O)[C@@H](NC(=O)[C@H](CCC(=O)O)NC(C)=O)[C@@H](C)O)C(=O)N[C@@H](C)C(=O)N[C@@H](Cc1c[nH]c2ccccc12)C(=O)NCC(=O)N1CCC[C@H]1C(=O)N[C@H](C(=O)NCC(=O)N[C@@H](CC(=O)O)C(=O)N[C@@H](Cc1c[nH]c2ccccc12)C(=O)N[C@@H](CC(=O)O)C(N)=O)[C@@H](C)O` (Ac-ETEFIAWGPTGDWD-NH2): 54 ± 1 nM; `CC[C@H](C)[C@H](NC(=O)[C@H](Cc1ccccc1)NC(=O)[C@H](CCC(=O)O)NC(=O)[C@@H](NC(=O)[C@H](CCC(=O)O)NC(C)=O)[C@@H](C)O)C(=O)N[C@@H](C)C(=O)N[C@@H](Cc1c[nH]c2ccccc12)C(=O)NCC(=O)N1CCC[C@H]1C(=O)N[C@H](C(=O)NCC(=O)N[C@@H](CC(=O)O)C(=O)N[C@@H](Cc1ccc(O)cc1)C(=O)N[C@@H](CC(=O)O)C(N)=O)[C@@H](C)O` (Ac-ETEFIAWGPTGDYD-NH2): 40 ± 1 nM.
Take `CC[C@H](C)[C@H](NC(=O)[C@H](Cc1ccccc1)NC(=O)[C@H](CCC(=O)O)NC(=O)[C@@H](NC(=O)[C@H](CCC(=O)O)NC(C)=O)[C@@H](C)O)C(=O)N[C@@H](C)C(=O)N[C@@H](Cc1c[nH]c2ccccc12)C(=O)NCC(=O)N1CCC[C@H]1C(=O)N[C@H](C(=O)NCC(=O)N[C@@H](CC(=O)O)C(=O)N(C)[C@@H](CCC(=O)O)C(=O)N[C@@H](CC(=O)O)C(N)=O)[C@@H](C)O` (Ac-ETEFIAWGPTGD[NMeE]D-NH2): the Ki under setting [2] was 31 ± 1 nM.
On the same count and under the same terms, with `CC[C@H](C)[C@H](NC(=O)[C@H](Cc1ccccc1)NC(=O)[C@H](CCC(=O)O)NC(=O)[C@@H](NC(=O)[C@H](CCC(=O)O)NC(C)=O)[C@@H](C)O)C(=O)N[C@@H](C)C(=O)N[C@@H](Cc1c[nH]c2ccccc12)C(=O)NCC(=O)N1CCC[C@H]1C(=O)N[C@H](C(=O)NCC(=O)N(C)[C@@H](CC(=O)O)C(=O)N[C@@H](CCC(=O)O)C(=O)N[C@@H](CC(=O)O)C(N)=O)[C@@H](C)O` (Ac-ETEFIAWGPTG[NMeD]ED-NH2) the figure was 45 ± 2 nM; with `CC[C@H](C)[C@H](NC(=O)[C@H](Cc1ccccc1)NC(=O)[C@H](CCC(=O)O)NC(=O)[C@@H](NC(=O)[C@H](CCC(=O)O)NC(C)=O)[C@@H](C)O)C(=O)N[C@@H](C)C(=O)N[C@@H](Cc1c[nH]c2ccccc12)C(=O)NCC(=O)N1CCC[C@H]1C(=O)N[C@H](C(=O)N(C)CC(=O)N[C@@H](CC(=O)O)C(=O)N[C@@H](CCC(=O)O)C(=O)N[C@@H](CC(=O)O)C(N)=O)[C@@H](C)O` (Ac-ETEFIAWGPT[Sar]DED-NH2), 132 ± 5 nM.
Take `CC[C@H](C)[C@H](NC(=O)[C@H](Cc1ccccc1)NC(=O)[C@H](CCC(=O)O)NC(=O)[C@@H](NC(=O)[C@H](CCC(=O)O)NC(C)=O)[C@@H](C)O)C(=O)N[C@@H](C)C(=O)N[C@@H](Cc1c[nH]c2ccccc12)C(=O)NCC(=O)N1CCC[C@H]1C(=O)N(C)[C@H](C(=O)NCC(=O)N[C@@H](CC(=O)O)C(=O)N[C@@H](CCC(=O)O)C(=O)N[C@@H](CC(=O)O)C(N)=O)[C@@H](C)O` (Ac-ETEFIAWGP[NMeT]GDED-NH2): the Ki under setting [2] is 77 ± 3 nM.
With `CC[C@H](C)[C@H](NC(=O)[C@H](Cc1ccccc1)NC(=O)[C@H](CCC(=O)O)NC(=O)[C@@H](NC(=O)[C@H](CCC(=O)O)NC(C)=O)[C@@H](C)O)C(=O)N[C@@H](C)C(=O)N[C@@H](Cc1c[nH]c2ccccc12)C(=O)N[C@@H](Cc1ccc(O)cc1)C(=O)NCC(=O)N1CCC[C@H]1C(=O)N[C@@H](C)C(=O)N[C@@H](CC(=O)O)C(=O)N[C@H](C(=O)N[C@@H](CC(=O)O)C(N)=O)[C@@H](C)O` (Ac-ETEFIAWYGPADTD-NH2), the Ki under setting [3] is 182 ± 2 nM.
For the molecule `CC[C@H](C)[C@H](NC(=O)[C@H](Cc1ccccc1)NC(=O)[C@H](CCC(=O)O)NC(=O)[C@@H](NC(=O)[C@H](CCC(=O)O)NC(C)=O)[C@@H](C)O)C(=O)N[C@@H](C)C(=O)N[C@@H](Cc1c[nH]c2ccccc12)C(=O)N[C@@H](Cc1ccc(O)cc1)C(=O)N1CCC[C@H]1C(=O)N[C@@H](C)C(=O)N[C@@H](CC(=O)O)C(=O)N[C@H](C(=O)N[C@@H](CC(=O)O)C(N)=O)[C@@H](C)O` (Ac-ETEFIAWYPADTD-NH2), under setting [3], the Ki was 190 ± 3 nM.
As for `CC(=O)N[C@@H](CCC(=O)O)C(=O)N(C)[C@@H](CC(=O)O)C(=O)N[C@@H](CC(=O)O)C(=O)N[C@@H](CO)C(=O)N[C@@H](CC(=O)O)C(=O)N[C@H](C(=O)N[C@@H](Cc1c[nH]c2ccccc12)C(=O)N[C@@H](Cc1c[nH]c2ccccc12)C(=O)NCC(=O)NCC(=O)N[C@@H](C)C(=O)N[C@@H](CC(=O)O)C(=O)N[C@H](C(=O)N[C@@H](CC(=O)O)C(N)=O)[C@@H](C)O)C(C)C` (Ac-E[NMeD]DSDVWWGGADTD-NH2), under “Table 7, Ala-, D-amino acids and N-methylation scans of APPWT”, the Ki is 655 ± 24 nM.
Turning to `CC(=O)NCC(=O)NCC(=O)N[C@@H](C)C(=O)N[C@@H](CC(=O)O)C(=O)N[C@H](C(=O)N[C@@H](CC(=O)O)C(=O)N[C@@H](Cc1ccc(O)cc1)C(=O)N[C@@H](C)C(=O)N[C@@H](CC(=O)O)C(N)=O)[C@@H](C)O` (Ac-GGADTDYAD-NH2), under “Table 4, truncation and elongation scans of APP epitope”, the Ki was over 62500 nM.
Turning to `CC[C@H](C)[C@H](NC(C)=O)C(=O)N[C@H](C(=O)N[C@@H](Cc1c[nH]c2ccccc12)C(=O)NCC(=O)N1CCC[C@H]1C(=O)N[C@H](C(=O)N[C@H](C(=O)N[C@@H](CO)C(=O)N[C@@H](CCCNC(=N)N)C(=O)N[C@@H](CCC(=O)O)C(=O)N[C@@H](CC(=O)O)C(=O)NCC(N)=O)C(C)C)[C@@H](C)O)C(C)C` (Ac-IVWGPTVSREDG-NH2), the Ki under setting [4] is 15700 ± 210 nM.
For the molecule `CC(=O)N[C@@H](CCCCN)C(=O)N[C@@H](CC(=O)O)C(=O)N[C@@H](CC(=O)O)C(=O)N[C@@H](CO)C(=O)N[C@@H](CC(=O)O)C(=O)N[C@H](C(=O)N[C@@H](Cc1c[nH]c2ccccc12)C(=O)N[C@@H](Cc1c[nH]c2ccccc12)C(=O)NCC(=O)NCC(=O)N[C@@H](C)C(=O)N[C@@H](CC(=O)O)C(=O)N[C@H](C(=O)N[C@@H](CC(=O)O)C(N)=O)[C@@H](C)O)C(C)C` (Ac-KDDSDVWWGGADTD-NH2), the Ki (Table 10, deep mutational scanning validation variants of APPWT) is 1520 ± 53 nM.
As for `CC[C@H](C)[C@H](NC(=O)[C@H](C)NC(=O)[C@H](Cc1c[nH]c2ccccc12)NC(=O)[C@@H]1CCCN1C(=O)[C@H](Cc1ccc(O)cc1)NC(=O)[C@H](CCC(N)=O)NC(=O)[C@H](CO)NC(=O)[C@H](CO)NC(=O)[C@@H]1CCCN1C(C)=O)C(=O)N[C@H](C(=O)N[C@@H](Cc1c[nH]c2ccccc12)C(=O)NCC(=O)N1CCC[C@H]1C(=O)N[C@H](C(=O)N[C@H](C(=O)N[C@@H](CO)C(=O)N[C@@H](CCCNC(=N)N)C(=O)N[C@@H](CCC(=O)O)C(=O)N[C@@H](CC(=O)O)C(=O)NCC(N)=O)C(C)C)[C@@H](C)O)C(C)C` (Ac-PSSQYPWAIVWGPTVSREDG-NH2), under setting [4], the Ki is over 62500 nM.

Values taken from patent publication US20260193293A1, “PEPTIDES CAPABLE OF INHIBITING PROTEIN-PROTEIN INTERACTIONS AT GABAB1A SUBUNIT AND USES THEREOF” (UNIVERSITY OF COPENHAGEN, priority 2022, published 2026).
